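Interpolation was linear, between the two tested concentrations surrounding the appropriate level; five concentrations were tested over 48 hours in 96-well plates. The concentration for 50% growth inhibition is given as GI50.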 Calls of active or inactive are those of the source. Rule as the data show it: active = GI50 up to about 1.1 µM and inactive = higher.
Columns and labels:
Experiment in all cases: inhibition of tumour cell growth, NCI panel, 48 h
HCC 2998 = system: HCC 2998
SF-295 = system: SF-295
NCI-H226 = system: NCI-H226
A498 = system: A498
ACHN = system: ACHN
OVCAR-8 = system: OVCAR-8
SK-MEL-2 = system: SK-MEL-2
UO-31 = system: UO-31
MDA-N = system: MDA-N
K562 = system: K562
RXF 393 = system: RXF 393
A549 = system: A549
NCI-H23 = system: NCI-H23
OVCAR-5 = system: OVCAR-5
SK-MEL-28 = system: SK-MEL-28
CCRF-CEM = system: CCRF-CEM
PC-3 = system: PC-3
786-0 = system: 786-0
DU-145 = system: DU-145
IGROV-1 = system: IGROV-1
OVCAR-4 = system: OVCAR-4
LOX IMVI = system: LOX IMVI
RPMI-8226 = system: RPMI-8226
HCT-15 = system: HCT-15
UACC-62 = system: UACC-62
MOLT-4 = system: MOLT-4
NCI/ADR-RES = system: NCI/ADR-RES
HOP-62 = system: HOP-62
MCF7 = system: MCF7
SK-OV-3 = system: SK-OV-3
SK-MEL-5 = system: SK-MEL-5
UACC-257 = system: UACC-257
SNB-19 = system: SNB-19
SNB-75 = system: SNB-75
M14 = system: M14
NCI-H460 = system: NCI-H460
CAKI-1 = system: CAKI-1
COLO 205 = system: COLO 205
EKVX = system: EKVX
U-251 = system: U-251
KM12 = system: KM12
MDA-MB-435 = system: MDA-MB-435
HT-29 = system: HT-29
T47D = system: T47D
HOP-92 = system: HOP-92
Malme-3M = system: Malme-3M
SF-268 = system: SF-268
SR = system: SR
NCI-H522 = system: NCI-H522
Hs-578T = system: Hs-578T
TK-10 = system: TK-10
HCT-116 = system: HCT-116
MDA-MB-231 = system: MDA-MB-231
HL-60 = system: HL-60
SN12C = system: SN12C
SF-539 = system: SF-539
SW-620 = system: SW-620
BT-549 = system: BT-549
OVCAR-3 = system: OVCAR-3

O=C1[C@@H](O)[C@@H]2CCCC[C@@]23CCCN13
GI50 (HCC 2998): > 100 µM (inactive)
GI50 (SF-295): > 100 µM (inactive)
GI50 (NCI-H226): > 100 µM (inactive)
GI50 (A498): > 100 µM (inactive)
GI50 (ACHN): > 100 µM (inactive)
GI50 (OVCAR-8): > 100 µM (inactive)
GI50 (SK-MEL-2): > 100 µM (inactive)
GI50 (UO-31): > 100 µM (inactive)
GI50 (MDA-N): > 100 µM (inactive)
GI50 (K562): > 100 µM (inactive)
GI50 (RXF 393): > 100 µM (inactive)
GI50 (A549): > 100 µM (inactive)
GI50 (NCI-H23): > 100 µM (inactive)
GI50 (OVCAR-5): > 100 µM (inactive)
GI50 (SK-MEL-28): > 100 µM (inactive)
GI50 (CCRF-CEM): > 100 µM (inactive)
GI50 (PC-3): > 100 µM (inactive)
GI50 (786-0): > 100 µM (inactive)
GI50 (DU-145): > 100 µM (inactive)
GI50 (IGROV-1): > 100 µM (inactive)
GI50 (OVCAR-4): > 100 µM (inactive)
GI50 (LOX IMVI): > 100 µM (inactive)
GI50 (RPMI-8226): > 100 µM (inactive)
GI50 (HCT-15): > 100 µM
GI50 (UACC-62): > 100 µM (inactive)
GI50 (MOLT-4): > 100 µM (inactive)
GI50 (NCI/ADR-RES): > 100 µM (inactive)
GI50 (HOP-62): > 100 µM (inactive)
GI50 (MCF7): > 100 µM (inactive)
GI50 (SK-OV-3): > 100 µM (inactive)
GI50 (SK-MEL-5): > 100 µM (inactive)
GI50 (UACC-257): > 100 µM (inactive)
GI50 (SNB-19): > 100 µM (inactive)
GI50 (SNB-75): 37.6 µM (inactive)
GI50 (M14): > 100 µM (inactive)
GI50 (NCI-H460): > 100 µM (inactive)
GI50 (CAKI-1): > 100 µM (inactive)
GI50 (COLO 205): > 100 µM (inactive)
GI50 (EKVX): > 100 µM (inactive)
GI50 (U-251): > 100 µM (inactive)
GI50 (KM12): > 100 µM (inactive)
GI50 (MDA-MB-435): > 100 µM (inactive)
GI50 (HT-29): > 100 µM (inactive)
GI50 (T47D): > 100 µM (inactive)
GI50 (HOP-92): 36.6 µM (inactive)
GI50 (Malme-3M): > 100 µM (inactive)
GI50 (SF-268): > 100 µM (inactive)
GI50 (SR): > 100 µM (inactive)
GI50 (NCI-H522): > 100 µM (inactive)
GI50 (Hs-578T): > 100 µM (inactive)
GI50 (TK-10): > 100 µM (inactive)
GI50 (HCT-116): > 100 µM (inactive)
GI50 (MDA-MB-231): > 100 µM (inactive)
GI50 (HL-60): > 100 µM (inactive)
GI50 (SN12C): > 100 µM (inactive)

Cc1cccc2c1Oc1cc(Cl)ccc1C2NC(=O)CCN1CCCCC1 (stereo unspecified)
GI50 (SF-539): 16.7 µM (inactive)
GI50 (HCC 2998): 15 µM (inactive)
GI50 (SF-295): 18.8 µM (inactive)
GI50 (OVCAR-8): 16.3 µM (inactive)
GI50 (UO-31): 15.4 µM (inactive)
GI50 (MDA-N): 16.3 µM (inactive)
GI50 (K562): 15.1 µM (inactive)
GI50 (A549): 18.7 µM (inactive)
GI50 (NCI-H23): 19.1 µM (inactive)
GI50 (OVCAR-5): 17.8 µM (inactive)
GI50 (SK-MEL-28): 15.6 µM (inactive)
GI50 (CCRF-CEM): 16 µM (inactive)
GI50 (PC-3): 14.6 µM (inactive)
GI50 (786-0): 14.8 µM (inactive)
GI50 (DU-145): > 10 µM (inactive)
GI50 (IGROV-1): > 10 µM (inactive)
GI50 (OVCAR-4): 15.3 µM (inactive)
GI50 (LOX IMVI): 15.6 µM (inactive)
GI50 (RPMI-8226): 25 µM (inactive)
GI50 (HCT-15): 17.7 µM
GI50 (UACC-62): 14.7 µM (inactive)
GI50 (MOLT-4): 16.1 µM (inactive)
GI50 (NCI/ADR-RES): 15.5 µM (inactive)
GI50 (HOP-62): 14.3 µM (inactive)
GI50 (MCF7): 17.5 µM (inactive)
GI50 (SK-MEL-5): 14.9 µM (inactive)
GI50 (UACC-257): 16 µM (inactive)
GI50 (SNB-19): 17.5 µM (inactive)
GI50 (SNB-75): 14.5 µM (inactive)
GI50 (M14): 17.7 µM (inactive)
GI50 (NCI-H460): 16.5 µM (inactive)
GI50 (SW-620): 17.8 µM (inactive)
GI50 (COLO 205): 15 µM (inactive)
GI50 (EKVX): 20.7 µM (inactive)
GI50 (U-251): 15.6 µM (inactive)
GI50 (KM12): 16.3 µM (inactive)
GI50 (MDA-MB-435): 16 µM (inactive)
GI50 (HT-29): 12.6 µM (inactive)
GI50 (T47D): 13.1 µM (inactive)
GI50 (HOP-92): 2.02 µM (inactive)
GI50 (SF-268): 26.2 µM (inactive)
GI50 (SR): 16.2 µM (inactive)
GI50 (NCI-H522): 16.9 µM (inactive)
GI50 (BT-549): 18.7 µM (inactive)
GI50 (TK-10): 15.8 µM (inactive)
GI50 (HCT-116): 15.9 µM (inactive)
GI50 (MDA-MB-231): 20.6 µM (inactive)
GI50 (HL-60): 15.7 µM (inactive)
GI50 (OVCAR-3): > 10 µM (inactive)
GI50 (SN12C): 17.3 µM (inactive)

CN1C(=O)N(c2ccccc2)C2(CCN(CC3COc4ccccc4O3)CC2)C1=O (stereo unspecified)
GI50 (SF-539): > 100 µM (inactive)
GI50 (HCC 2998): > 100 µM (inactive)
GI50 (SF-295): > 100 µM (inactive)
GI50 (NCI-H226): 59.2 µM (inactive)
GI50 (A498): > 100 µM (inactive)
GI50 (ACHN): > 100 µM (inactive)
GI50 (OVCAR-8): > 100 µM (inactive)
GI50 (SK-MEL-2): > 100 µM (inactive)
GI50 (UO-31): > 100 µM (inactive)
GI50 (MDA-N): > 100 µM (inactive)
GI50 (K562): 99.3 µM (inactive)
GI50 (RXF 393): > 100 µM (inactive)
GI50 (A549): > 100 µM (inactive)
GI50 (NCI-H23): 94.4 µM (inactive)
GI50 (OVCAR-5): > 100 µM (inactive)
GI50 (SK-MEL-28): > 100 µM (inactive)
GI50 (CCRF-CEM): > 100 µM (inactive)
GI50 (PC-3): > 100 µM (inactive)
GI50 (786-0): 85.3 µM (inactive)
GI50 (DU-145): > 100 µM (inactive)
GI50 (IGROV-1): > 100 µM (inactive)
GI50 (OVCAR-4): > 100 µM (inactive)
GI50 (LOX IMVI): > 100 µM (inactive)
GI50 (RPMI-8226): 99.1 µM (inactive)
GI50 (HCT-15): > 100 µM
GI50 (UACC-62): > 100 µM (inactive)
GI50 (MOLT-4): 65.9 µM (inactive)
GI50 (NCI/ADR-RES): > 100 µM (inactive)
GI50 (HOP-62): > 100 µM (inactive)
GI50 (MCF7): > 100 µM (inactive)
GI50 (SK-MEL-5): 71.6 µM (inactive)
GI50 (UACC-257): 82.2 µM (inactive)
GI50 (SNB-19): 5.71 µM (inactive)
GI50 (M14): > 100 µM (inactive)
GI50 (NCI-H460): 96.2 µM (inactive)
GI50 (SW-620): 4.5 µM (inactive)
GI50 (CAKI-1): 32.4 µM (inactive)
GI50 (COLO 205): 87.5 µM (inactive)
GI50 (EKVX): > 100 µM (inactive)
GI50 (U-251): > 100 µM (inactive)
GI50 (KM12): > 100 µM (inactive)
GI50 (MDA-MB-435): > 100 µM (inactive)
GI50 (HT-29): 95.1 µM (inactive)
GI50 (T47D): > 100 µM (inactive)
GI50 (HOP-92): 66.5 µM (inactive)
GI50 (Malme-3M): > 100 µM (inactive)
GI50 (SF-268): > 100 µM (inactive)
GI50 (SR): > 100 µM (inactive)
GI50 (NCI-H522): > 100 µM (inactive)
GI50 (Hs-578T): > 100 µM (inactive)
GI50 (TK-10): > 100 µM (inactive)
GI50 (HCT-116): 96.8 µM (inactive)
GI50 (MDA-MB-231): > 100 µM (inactive)
GI50 (HL-60): 39.2 µM (inactive)
GI50 (OVCAR-3): 19.8 µM (inactive)
GI50 (SN12C): > 100 µM (inactive)
